Among the data in patent US5734013A, “Peptides having farnesyl transferase inhibiting properties and strain of genus streptomyces for producing same” (Rhone-Poulenc Rorer S.A., priority 1994, dated 1998) are IC50 values, retold here.

Starred links: 1 amine or outer side, 2 acyl side, 3 side chain; linkers in the order of their positions; H or OH if unused. Positions of bridges follow the written chain, without caps; N, C: chain ends. Non-standard residues stand in square brackets, D forms with d. Residues, ends and D or L forms follow the SMILES beside them. *: point of attachment. Trp(5-OH) = N[CH](Cc1c[nH]c2ccc(O)cc12)C(=O)O; Propanoyl(3-cHex) = O=C(CCC1CCCCC1)*; Hpg = N[CH](C(=O)O)c1ccc(O)cc1; NMeF = CN[CH](Cc1ccccc1)C(=O)O; X1 = CC1CC1(N[*:1])C(=O)[*:2]; Ac3c = NC1(C(=O)O)CC1

The target of this assay is T1, farnesyl transferase (Ftase) (Homo sapiens, UniProt P49354+P49356).
T1 construct: This enzyme was partially purified from human THP1 cells; endogenous in cells; host or cells: human THP1 cells (enzyme partially purified)
Briefly: Scintillation proximity assay (SPA) test for farnesyl transferase inhibition. The class given is biochemical. The note with it: Ftase partially purified from human THP1 cells; biotinylated B lamin peptide (BLB) 0.1 μM, 3HFPP 0.12 μM; 37° C., 60 minutes. Background: In a scintillation proximity assay essentially only radioactivity close to the scintillant gives light.
Procedure: The principle of SPA (scintillation proximity assay) technology is applied to assaying the enzymic activity of farnesyl transferase. According to this method, farnesyl transferase inhibitory activity is determined by the quantity of (^3 H)-farnesyl which is transferred from (^3 H)-farnesyl pyrophosphate ((^3 H) FPP) to a biotinylated acceptor substrate.
The acceptor substrate, which is biotinylated, is a peptide of 11 amino acids corresponding to the terminal sequence of B lamin (BLB). The donor substrate, farnesyl pyrophosphate, is labelled with tritrium (^3 HFPP). […] The radio-labelled peptide excites the beads, which then emit light which is quantified in a solid-liquid scintillation counter (Topcount®, Packard).
The SPA reaction is started by adding 40 μl of Ftase (2 μg) to a microtitre plate which contains 20 μl of BLB (0.1 μM), 20 μl of ^3 HFPP (0.12 μM) and 20 μl of assay buffer 50 mM Hepes, pH 7.5, 5 mM MgCl2, 5 mM DTT, 20 mM KCl, 0.01% triton X100 (control) or 20 μl of sample diluted in assay buffer (screening). The plate is incubated at 37° C. for 60 minutes and the reaction is stopped by adding 150 μl of stopping reagent containing the SPA beads. The plate is sealed with an adhesive film, left at ambient temperature for 30 minutes in order to reach equilibrium, and then counted in the Topcount counter. […] The IC50 values of the compounds are calculated by non-linear regression.
`COC(=O)CCC1NC(=O)C(Cc2ccccc2)N(C)C(=O)C(NC(=O)CCC2CCCCC2)C(C)OC(=O)C2(CC2C)NC(=O)C(c2ccc(O)cc2)NC(=O)C(Cc2c[nH]c3ccc(O)cc23)NC1=O` (stereo not drawn) [Peptide 3] ({Propanoyl(3-cHex)}-T[NMeF]E(OMe)[Trp(5-OH)][Hpg][X1]; ester 1-C; configuration not given here) gave an IC50 of 1300 nM.
Regarding `CC1OC(=O)C2(CC2C)NC(=O)C(c2ccc(O)cc2)NC(=O)C(Cc2c[nH]c3ccc(O)cc23)NC(=O)C(CCC(=O)O)NC(=O)C(Cc2ccccc2)N(C)C(=O)C1NC(=O)CCC1CCCCC1` (stereo not drawn) [Peptide 2] ({Propanoyl(3-cHex)}-T[NMeF]E[Trp(5-OH)][Hpg][X1]; ester 1-C; configuration not given here), inhibition was half-maximal at 538 nM (IC50).
The value for `CC1OC(=O)C2(CC2)NC(=O)C(c2ccc(O)cc2)NC(=O)C(Cc2c[nH]c3ccc(O)cc23)NC(=O)C(CCC(=O)O)NC(=O)C(Cc2ccccc2)N(C)C(=O)C1NC(=O)CCC1CCCCC1` (stereo not drawn) [Peptide 1] ({Propanoyl(3-cHex)}-T[NMeF]E[Trp(5-OH)][Hpg][Ac3c]; ester 1-C; configuration not given here) was 626 nM.

What is called IC50 is the concentration at which inhibition is half-maximal. High values mean a need for much substance, low ones inhibition by little substance.
